In patent US5462935A, “Cephalosporin compounds” (Lucky Limited, priority 1990, dated 1995):
Converted amounts (≈) assume the structure as drawn. Where two headings read alike, the source gives them in different places.

Experiments:
[1] = acute toxicity test, intravenous; details: mouse, in vivo, ICR mice, observed for 14 days
Text: The results are shown in the last row of Table 2.

[2] = system: Escherichia coli ATCC 25922; test: minimal inhibitory concentration, two-fold agar dilution; assay type: cell-based; details: ATCC25922, Muller-Hinton agar, 37° C., 20 hours
Method: (§1) These NIC values were taken by employing a two-fold dilution method: that is, two-fold serial dilutions of each of the test compounds were made and dispersed in a Muller-Hinton agar medium; 2 μl of the standard test strain which had the 10^7 CFU (Colony Forming Unit) per ml was inoculated on the medium; and these were incubated at 37° C. for 20 hours.

[3] = system: Proteus vulgaris ATCC 6059; test: as above; assay type: cell-based; details: ATCC6059, Muller-Hinton agar, 37° C., 20 hours
Method: as §1

[4] = system: Pseudomonas aerugionsa ATCC 27853; test: as above; assay type: cell-based; details: ATCC27853, Muller-Hinton agar, 37° C., 20 hours
Method: as §1

[5] = system: Staphylococcus aureus ATCC 6638p; test: as above; assay type: cell-based; details: ATCC6638P, 20 h
Method: as §1

[6] = system: Enterobacter cloacae ATCC 27508; test: as above; assay type: cell-based; details: ATCC27508, Muller-Hinton agar, 37° C., 20 hours
Method: as §1

ATCC 12228 = test: as above; assay type: cell-based; details: Staphylococcus faecalis, ATCC12228, 20 h
Method: as §1

[7] = system: Escherichia coli ATCC 10536; test: as above; assay type: cell-based; details: ATCC10536, Muller-Hinton agar, 37° C., 20 hours
Method: as §1

[8] = system: Morganella morganii ATCC 8076h; test: as above; assay type: cell-based; details: ATCC8076H, 20 h
Method: as §1

[9] = system: Micrococcus luteus ATCC 9341; test: as above; assay type: cell-based; details: ATCC9341, Muller-Hinton agar, 37° C., 20 hours
Method: as §1

[10] = system: Pseudomonas aeruginosa ATCC 25619; test: as above; assay type: cell-based; details: ATCC25619, Muller-Hinton agar, 37° C., 20 hours
Method: as §1

[11] = system: Klebsiella pneumoniae ATCC 10031; test: as above; assay type: cell-based; details: ATCC10031, Muller-Hinton agar, 37° C., 20 hours
Method: as §1

[12] = system: Staphylococcus epidermidis ATCC 10537; test: as above; assay type: cell-based; details: ATCC10537, Muller-Hinton agar, 37° C., 20 hours
Method: as §1

[13] = system: Pseudomonas aerugionsa ATCC 10145; test: as above; assay type: cell-based; details: ATCC10145, Muller-Hinton agar, 37° C., 20 hours
Method: as §1

[14] = system: Proteus mirabilis ATCC 25933; test: as above; assay type: cell-based; details: ATCC25933, Muller-Hinton agar, 37° C., 20 hours
Method: as §1

[15] = system: Bacillus cereus ATCC 11778; test: as above; assay type: cell-based
Method: as §1

[16] = system: Serratia marcescens ATCC 27117; test: as above; assay type: cell-based; details: ATCC27117, Muller-Hinton agar, 37° C., 20 hours
Method: as §1

[17] = system: Providencia rettgeri ATCC 9250; test: as above; assay type: cell-based; details: ATCC9250, Muller-Hinton agar, 37° C., 20 hours
Method: as §1

[18] = system: Shigella sonnei ATCC 11060; test: as above; assay type: cell-based; details: ATCC11060, Muller-Hinton agar, 37° C., 20 hours
Method: as §1

[19] = system: Citrobacter freundii ATCC 8090; test: as above; assay type: cell-based; details: ATCC8090, Muller-Hinton agar, 37° C., 20 hours
Method: as §1

[20] = system: Salmonella typhimurium ATCC 14028; test: as above; assay type: cell-based; details: Salmonella enterica, Muller-Hinton agar, 37° C., 20 hours
Method: as §1

[21] = system: Streptococcus faecalis ATCC 29212; test: as above; assay type: cell-based; details: Enterococcus faecalis, ATCC29212, Muller-Hinton agar, 37° C., 20 hours
Method: as §1

[22] = system: Acinetobacter calcoaceticus ATCC 15473; test: as above; assay type: cell-based; details: ATCC15473, Muller-Hinton agar, 37° C., 20 hours
Method: as §1

[23] = system: Shigella flexneri ATCC 11836; test: as above; assay type: cell-based; details: ATCC11836, Muller-Hinton agar, 37° C., 20 hours
Method: as §1

[24] = system: Enterobacter aerogenes ATCC 29751; test: as above; assay type: cell-based; details: Klebsiella aerogenes
Method: as §1

[25] = system: Bacillus megaterium ATCC 9885; test: as above; assay type: cell-based; details: Priestia megaterium
Method: as §1

[26] = Bacillus cereus, ATCC11778, 20 h

| Compound | LD50 at 336 h [1] [mg/kg] | MIC [2] [µg/mL] | MIC [3] [µg/mL] | MIC [4] [µg/mL] | MIC [5] [µg/mL] | MIC [6] [µg/mL] | MIC (ATCC 12228) [µg/mL] | MIC [7] [µg/mL] | MIC [9] [µg/mL] | MIC [10] [µg/mL] | MIC [11] [µg/mL] | MIC [12] [µg/mL] | MIC [13] [µg/mL] | MIC [14] [µg/mL] | MIC [16] [µg/mL] | MIC [17] [µg/mL] | MIC [18] [µg/mL] | MIC [19] [µg/mL] | MIC [20] [µg/mL] | MIC [21] [µg/mL] | also measured |
| --- | --- | --- | --- | --- | --- | --- | --- | --- | --- | --- | --- | --- | --- | --- | --- | --- | --- | --- | --- | --- | --- |
| Cc1c(N)nc(SCC2=C(C(=O)[O-])N3C(=O)C(NC(=O)/C(=N\O[C@H](C)C(=O)O)c4csc(N)n4)[C@H]3SC2)[n+](C)c1N (stereo partly drawn) [I-R-6, 7-[(Z)-2-(2-aminothiazol-4-yl)-2-[(R)-1-carboxyeth-1-oxyimino]acetamido]-3-[(4,6-diamino-1,5-dimethylpyrimidinium-2-yl)thiomethyl]-3-cephem-4-carboxylate] | > 3000 | 0.13 (≈ 0.208 µM) | 0.063 (≈ 0.101 µM) | 2 (≈ 3.21 µM) | 4 (≈ 6.41 µM) | 0.016 (≈ 0.0257 µM) | 2 (≈ 3.21 µM) | 0.063 (≈ 0.101 µM) | 0.5 (≈ 0.802 µM) | 2 (≈ 3.21 µM) | 0.063 (≈ 0.101 µM) | 2 (≈ 3.21 µM) | 2 (≈ 3.21 µM) | 0.031 (≈ 0.0497 µM) | 0.13 (≈ 0.208 µM) | ≤ 0.008 | 0.063 (≈ 0.101 µM) | 0.063 (≈ 0.101 µM) | 0.13 (≈ 0.208 µM) | > 128 | MIC [8]: ≤ 0.008 µg/mL; MIC [15, 26]: 128 µg/mL (≈ 205 µM); MIC [22]: 4 µg/mL (≈ 6.41 µM); MIC [23]: 0.031 µg/mL (≈ 0.0497 µM); MIC ([24]; ATCC29751, 20 h): 1 µg/mL (≈ 1.6 µM) |
| C[C@H](O/N=C(\C(=O)NC1C(=O)N2C(C(=O)[O-])=C(CSc3nc(N)cc(N)[n+]3C)CS[C@H]12)c1csc(N)n1)C(=O)O (stereo partly drawn) [I-S-2, 7-[(Z)-2-(2-aminothiazol-4-yl)-2-[(S)-1-carboxyeth-1-oxyimino]acetamido]-3-[(4,6-diamino-1-methylpyrimidinium-2-yl)thiomethyl]-3-cephem-4-carboxylate] | > 3000 | 0.016 (≈ 0.0262 µM) | 0.016 (≈ 0.0262 µM) | 0.5 (≈ 0.82 µM) | 2 (≈ 3.28 µM) | ≤ 0.008 | 1 (≈ 1.64 µM) | 0.031 (≈ 0.0508 µM) | 0.13 (≈ 0.213 µM) | 1 (≈ 1.64 µM) | 0.016 (≈ 0.0262 µM) | 1 (≈ 1.64 µM) | 1 (≈ 1.64 µM) | 0.016 (≈ 0.0262 µM) | 0.031 (≈ 0.0508 µM) | ≤ 0.008 | 0.031 (≈ 0.0508 µM) | 0.016 (≈ 0.0262 µM) | 0.13 (≈ 0.213 µM) | > 128 | MIC ([25]; ATCC9885, 20 h): 0.25 µg/mL (≈ 0.41 µM); MIC [15, 26]: 32 µg/mL (≈ 52.5 µM); MIC [22]: 2 µg/mL (≈ 3.28 µM); MIC [23]: ≤ 0.008 µg/mL; MIC ([24]; ATCC29751, 20 h): 0.5 µg/mL (≈ 0.82 µM) |
| Cc1c(N)nc(SCC2=C(C(=O)[O-])N3C(=O)C(NC(=O)/C(=N\O[C@@H](C)C(=O)O)c4csc(N)n4)[C@H]3SC2)[n+](N)c1N (stereo partly drawn) [I-S-7, 7-[(Z)-2-(2-aminothiazol-4-yl)-2-[(S)-1-carboxyeth-1-oxyimino]acetamido]-3-[(5-methyl-1,4,6-triaminopyrimidinium-2-yl)thiomethyl]-3-cephem-4-carboxylate] | > 5000 | 0.016 (≈ 0.0256 µM) | 0.016 (≈ 0.0256 µM) | 0.5 (≈ 0.8 µM) | 4 (≈ 6.4 µM) | ≤ 0.008 | 1 (≈ 1.6 µM) | 0.031 (≈ 0.0496 µM) | 0.25 (≈ 0.4 µM) | 0.5 (≈ 0.8 µM) | 0.016 (≈ 0.0256 µM) | 2 (≈ 3.2 µM) | 1 (≈ 1.6 µM) | 0.016 (≈ 0.0256 µM) | 0.063 (≈ 0.101 µM) | ≤ 0.008 | 0.031 (≈ 0.0496 µM) | 0.016 (≈ 0.0256 µM) | 0.063 (≈ 0.101 µM) | > 128 | MIC ([25]; ATCC9885, Bacillus megaterium ATCC 9885, Muller-Hinton agar, 37° C., 20 hours, read-out: MIC): 26 µg/mL (≈ 41.6 µM); MIC ([15]; ATCC11778, Bacillus cereus ATCC 11778, Muller-Hinton agar, 37° C., 20 hours, read-out: MIC): 84 µg/mL (≈ 134 µM); MIC [22]: 2 µg/mL (≈ 3.2 µM); MIC [23]: 0.016 µg/mL (≈ 0.0256 µM); MIC ([24]; ATCC29751, Enterobacter aerogenes ATCC 29751, Muller-Hinton agar, 37° C., 20 hours, read-out: MIC): 0.15 µg/mL (≈ 0.24 µM) |
